Source: patent US20260284028A1, “FUSED BICYCLIC HETEROCYCLYL COMPOUNDS AS CCR4 MODULATORS” (AURIGENE ONCOLOGY LIMITED, priority 2023, published 2026)
Where two headings read alike, the source gives them in different places.

Target: T1, CCR4 (Homo sapiens, UniProt P51679)
T1 construct: expressed in transfected cells; host or cells: CHO-K1
T1 sequence (P51679 1-360): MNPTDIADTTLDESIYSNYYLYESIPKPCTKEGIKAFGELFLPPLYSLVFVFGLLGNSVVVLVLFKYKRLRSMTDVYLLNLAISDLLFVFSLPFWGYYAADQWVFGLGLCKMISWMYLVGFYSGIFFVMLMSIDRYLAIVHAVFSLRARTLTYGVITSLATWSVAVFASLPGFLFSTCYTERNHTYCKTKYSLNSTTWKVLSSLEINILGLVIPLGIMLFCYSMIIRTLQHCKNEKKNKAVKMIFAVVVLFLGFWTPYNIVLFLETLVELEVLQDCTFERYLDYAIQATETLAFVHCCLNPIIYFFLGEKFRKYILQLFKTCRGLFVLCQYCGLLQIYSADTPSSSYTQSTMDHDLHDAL
Assay: β-Arrestin recruitment assay (CHO-K1 CCR4 β-Arrestin cells stimulated with recombinant human CCL22)
Assay type: cell-based
Conditions: CCL22 10 nM stimulation; for IC50: read-out: CCR4 antagonistic activity IC50 (μM) in range; for inhibition: read-out: % inhibition at 5 μM/30 μM (% E-Max)
Protocol: CHO-K1 CCR4 β-Arrestin cells were seeded and incubated overnight at 37° C. in a CO2 incubator for adherence. Next day, cells were pretreated with various concentrations of CCR4 modulators for 30 mins at 37° C. The cells were stimulated with recombinant human CCL22 (10 nM) and further incubated for 90 mins. Working detection solution was added and incubated at room temperature for 1 hour after which the chemiluminescent signal was read using a luminometer.
Exemplary compounds of the present application were screened by the above-mentioned assay and the results were tabulated.

[1] = CHO-K1, read-out: % inhibition 30 μM (% E-Max)

| SMILES | IC50 [µM] | inhibition [1] [%] | % inhibition at 5 μM/30 μM (% E-Max) [% at 5 μM] | inhibition (CHO-K1, at 30 μM) [%] |
| --- | --- | --- | --- | --- |
| C[C@@H](Nc1c(F)ccc2nc(N3CC([C@H]4CCCN([C@H]5C[C@](C)(C(=O)O)C5)C4)C3)sc12)c1ncc(Cl)cc1Cl [Compound 37, (1R,3r)-3-((R)-3-(1-(7-(((S)-1-(3,5-dichloropyridin-2-yl)ethyl)amino)-6-fluorobenzo[d]thiazol-2-yl)azetidin-3-yl)piperidin-1-yl)-1-methylcyclobutane-1-carboxylic acid] | > 0.5 |  | 78 |  |
| C[C@@H](Nc1c(F)ccc2nc(N3CC([C@H]4CCCN([C@H]5C[C@](C)(C(=O)O)C5)C4)C3)sc12)c1ncc(F)cc1F [Compound 39] |  | 39 |  |  |
| CC(Nc1c(OC(F)F)ccc2nc(N3CC([C@H]4CCCN([C@H]5C[C@](C)(C(=O)O)C5)C4)C3)sc12)c1ncc(Cl)cc1Cl (stereo partly shown) [Compound 47] | > 0.5 | 93 |  |  |
| C[C@@H](Nc1c(OC(F)F)ccc2nc(N3CC([C@H]4CCCN([C@H]5C[C@](C)(C(=O)O)C5)C4)C3)sc12)c1ncc(Cl)cc1Cl [Compound 48] |  | 52 |  |  |
| C[C@H](Nc1c(OC(F)F)ccc2nc(N3CC([C@H]4CCCN([C@H]5C[C@](C)(C(=O)O)C5)C4)C3)sc12)c1ncc(F)cc1F [Compound 52] | > 0.5 |  |  | 99 |
| C[C@@H](Nc1ncnc2nc(N3CC([C@H]4CCCN([C@H]5C[C@](C)(C(=O)O)C5)C4)C3)sc12)c1ncc(Cl)cc1Cl [Compound 53] | 0.25 to 0.5 | 94 |  |  |

Further lines, results first:

| IC50 [µM] | inhibition [1] [%] | % inhibition at 5 μM/30 μM (% E-Max) [% at 5 μM] | inhibition (CHO-K1, at 30 μM) [%] | SMILES |
| --- | --- | --- | --- | --- |
| 0.25 to 0.5 | 102 |  |  | C[C@@H](Nc1nc(C(F)(F)F)nc2nc(N3CC([C@H]4CCCN([C@H]5C[C@](C)(C(=O)O)C5)C4)C3)sc12)c1ccc(Cl)cc1Cl [Compound 34] |
| < 0.25 |  | 103 |  | C[C@@H](Nc1c(F)ccc2nc(N3CC([C@H]4CCCN([C@H]5C[C@](C)(C(=O)O)C5)C4)C3)sc12)c1ncc(Cl)cc1Cl [Compound 36, (1R,3r)-3-((R)-3-(1-(7-(((R)-1-(3,5-dichloropyridin-2-yl)ethyl)amino)-6-fluorobenzo[d]thiazol-2-yl)azetidin-3-yl)piperidin-1-yl)-1-methylcyclobutane-1-carboxylic acid] |
| 0.25 to 0.5 | 81 |  |  | CC(Nc1c(F)ccc2nc(N3CC([C@H]4CCCN([C@H]5C[C@](C)(C(=O)O)C5)C4)C3)sc12)c1ncc(F)cc1F (stereo partly shown) [Compound 38] |
| 0.25 to 0.5 | 84 |  |  | C[C@H](Nc1c(F)ccc2nc(N3CC([C@H]4CCCN([C@H]5C[C@](C)(C(=O)O)C5)C4)C3)sc12)c1ncc(F)cc1F [Compound 40] |
| 0.25 to 0.5 | 101 |  |  | CC(Nc1c(F)cnc2nc(N3CC([C@H]4CCCN([C@H]5C[C@](C)(C(=O)O)C5)C4)C3)sc12)c1ncc(Cl)cc1Cl (stereo partly shown) [Compound 41] |
| 0.25 to 0.5 | 99 |  |  | CC(Nc1c(F)cnc2nc(N3CC([C@H]4CCCN([C@H]5C[C@](C)(C(=O)O)C5)C4)C3)sc12)c1ncc(F)cc1F (stereo partly shown) [Compound 44] |
